In doi:10.1101/2023.01.01.522448v1 (biorxiv, 2023):

Tested on: PrASNase (glutaminase-free recombinant L-asparaginase)
Experiment: Nesslerization
Assay type: biochemical, Metapseudomonas resinovorans
Details: pH 8.6, 37°C; 500 nM enzyme; 2-20 mM substrate

Km: 9.49 mM
SMILES: NC(=O)C[C@H](N)C(=O)O [L-asparagine]
